According to patent publication US12036208B2, “Methods for treating neurodegenerative disorders” (Alzheon, Inc., priority 2017, dated 2024):

The molecules below were run against T1, recombinant human β-Amyloid Peptide (1-42) (Homo sapiens, UniProt P05067) (assay: Binding assay: mass spectrometry (Q-TOF) of compounds binding to Aβ1-42). Conditions: 22 pmol/μL β-Amyloid Peptide (1-42), 1100 pmol/μL test compound; direct infusion Q-TOF MS at room temperature.
T1 construct: recombinant human β-Amyloid Peptide (1-42) from BioLegend; purchased BioLegend 843801
T1 sequence (P05067 672-713 limits assumed): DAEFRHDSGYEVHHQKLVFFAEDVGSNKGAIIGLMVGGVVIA
Source text: The activity of the compounds utilized in the methods described herein can be assayed by measuring the binding of those compounds to β-amyloid. Data acquisition can be performed using a Waters Synapt G2-S quadrupole time of flight mass spectrometer (Q-TOF MS) with traveling wave ion mobility (Waters Corp. 34 Maple Street Milford, MA 01757). The data can be acquired using the systems sensitivity mode to allow for the detection of the less abundant oligomers. Samples can be infused at room temperature due to lower solubility of the peptide at body temperature ([…]).
One mg of compound can be reconstituted in 1 mL of Fisher Optima LC/MS grade water (cat: W6-1) and vortexed vigorously for 2 minutes until completely dissolved. The sample can be then diluted to create a 220 pmol/μL, 2200 pmol/μL, and 22,000 pmol/μL solutions to perform binding experiments to Aβ42 with 10-, 100-, and 1000-fold molar excess of tested compound.
One mg of recombinant human β-Amyloid Peptide (1-42) from BioLegend can be reconstituted in 200 μL of Fisher Optima LC/MS grade water and vortexed vigorously to solubilize the peptide creating a 5 mg/mL solution. Samples can be then diluted to a final concentration of 44 pmol/μL prior to mixing (1:1) with test compound solution. Final concentrations were 22 pmol/μL for human β-Amyloid Peptide (1-42) and 1100 pmol/μL for test compounds.
The data acquisition was performed using a Waters time of flight mass spectrometer (Q-TOF Micro). The data was acquired using the scanning mode to allow for the detection of the peptide. Samples were infused at room temperature. The mass spectrometer conditions were maintained throughout the study to ensure consistency of the data. The Waters Q-TOF conditions were as follows:
Samples were directly infused into the mass spectrometer at a flow rate of 20 μL/min using in-build Syringe Pump and Hamilton 1 mL Syringe and the acquisition time was kept 2 minutes.
With O=S(=O)(O)c1nnc[nH]1 [Compound 117] the “Number of Molecules Bound to Aβ1-42 (# of Molecules Bound to Aβ)” value (“Number of Molecules Bound” for short) was 3. For Cn1cc(S(=O)(=O)O)cn1 [Compound 118], the “Number of Molecules Bound” value was 1. With Cn1cnnc1S(=O)(=O)O [Compound 119] the “Number of Molecules Bound” value was 0. With C[n+]1cccc(S(=O)(=O)[O-])c1 [Compound 120] the “Number of Molecules Bound” value was 8. For Nc1cccc(S(=O)(=O)O)c1 [Compound 121], the “Number of Molecules Bound” value was 0. For Nc1ccc(S(=O)(=O)O)cc1 [Compound 122], the “Number of Molecules Bound” value was 0. For Nc1ncc(S(=O)(=O)O)s1 [Compound 124], the “Number of Molecules Bound” value was 3. NCc1ccc(S(=O)(=O)O)cc1 [Compound 125] was tested, and the “Number of Molecules Bound” value was 0. Nc1ccc(N)c(S(=O)(=O)O)c1 [Compound 126] was tested, and the “Number of Molecules Bound” value was 1. In the case of Nc1ccc(S(=O)(=O)O)c(N)c1 [Compound 127], the “Number of Molecules Bound” value is reported as 0. With Nc1cc(S(=O)(=O)O)ccc1O [Compound 128] the “Number of Molecules Bound” value was 0. With O=S(=O)(O)c1ccc2[nH]cnc2c1 [Compound 130] the “Number of Molecules Bound” value was 0. For O=S(=O)(O)c1ccc2c(c1)NCC2 [Compound 131], the “Number of Molecules Bound” value was 0. Cn1c(S(=O)(=O)O)nc2ccccc21 [Compound 133] was tested, and the “Number of Molecules Bound” value was 0. With Nc1ncnc2[nH]c(S(=O)(=O)O)nc12 [Compound 134] the “Number of Molecules Bound” value was 2. With Nc1ccc2cc(S(=O)(=O)O)ccc2c1 [Compound 135] the “Number of Molecules Bound” value was 0. With Nc1cccc2ccc(S(=O)(=O)O)cc12 [Compound 136] the “Number of Molecules Bound” value was 0. For Nc1ccc(S(=O)(=O)O)c2ccccc12 [Compound 137], the “Number of Molecules Bound” value was 0. In the case of Nc1cccc2c(S(=O)(=O)O)cccc12 [Compound 138], the “Number of Molecules Bound” value is reported as 0. For Nc1cccc2cc(S(=O)(=O)O)ccc12 [Compound 139], the “Number of Molecules Bound” value was 0. Nc1ccc2c(S(=O)(=O)O)cccc2c1 [Compound 140] was tested, and the “Number of Molecules Bound” value was 0. With O=C1Nc2ccc(S(=O)(=O)O)cc2CO1 [Compound 141] the “Number of Molecules Bound” value was 0. Nc1nc2ccc(S(=O)(=O)O)cc2s1 [Compound 142] was tested, and the “Number of Molecules Bound” value was 2. With Nc1cc(S(=O)(=O)O)cc(C(=O)O)c1O [Compound 143] the “Number of Molecules Bound” value was 0. In the case of Nc1ccc2c(S(=O)(=O)O)cccc2c1N [Compound 144], the “Number of Molecules Bound” value is reported as 0. For CCCn1c(S(=O)(=O)O)nc2ccccc21 [Compound 145], the “Number of Molecules Bound” value was 0. In the case of Nc1ccc2cc(S(=O)(=O)O)ccc2c1.O [Compound 146], the “Number of Molecules Bound” value is reported as 0. With Cc1cc(C)[n+]2cc(S(=O)(=O)[O-])sc2n1 [Compound 148] the “Number of Molecules Bound” value was 5. For Nc1ccc2ccc(S(=O)(=O)[O-])cc2c1.[Na+] [Compound 149], the “Number of Molecules Bound” value was 0. In the case of O=S(=O)(O)c1ccc(Nc2ccccc2)cc1 [Compound 150], the “Number of Molecules Bound” value is reported as 0. With COC(=O)c1cc(OC)c(S(=O)(=O)O)s1 [Compound 151] the “Number of Molecules Bound” value was 0. Cc1cc(C)n(-c2ccc(S(=O)(=O)O)cc2)n1 [Compound 152] was tested, and the “Number of Molecules Bound” value was 1. CC[n+]1ccc(-c2cccc(S(=O)(=O)[O-])c2)o1 [Compound 153] was tested, and the “Number of Molecules Bound” value was 5. For Cc1cc(=O)n(-c2cccc(S(=O)(=O)O)c2)[nH]1 [Compound 154], the “Number of Molecules Bound” value was 1. For CN(C)C(=O)[n+]1ccc(CCS(=O)(=O)[O-])cc1 [Compound 158], the “Number of Molecules Bound” value was 0. With Nc1ccc(Nc2ccc(N)cc2S(=O)(=O)O)cc1 [Compound 160] the “Number of Molecules Bound” value was 1. In the case of O=C(O)c1cc(=O)n(-c2ccc(S(=O)(=O)O)cc2)[nH]1 [Compound 161], the “Number of Molecules Bound” value is reported as 0. CCOC(=O)c1cnn(-c2ccc(S(=O)(=O)O)cc2)c1N [Compound 163] was tested, and the “Number of Molecules Bound” value was 0. With Cc1ccc2nc(-c3ccc(N)cc3)sc2c1S(=O)(=O)O [Compound 164] the “Number of Molecules Bound” value was 0. In the case of Cc1oc2ccc(-c3ccccc3)cc2[n+]1CCCS(=O)(=O)[O-] [Compound 165], the “Number of Molecules Bound” value is reported as 1. Nc1ccc(-c2ccc(N)cc2S(=O)(=O)O)c(S(=O)(=O)O)c1 [Compound 166] was tested, and the “Number of Molecules Bound” value was 2. With Nc1cc(S(=O)(=O)[O-])c2cccc(S(=O)(=O)[O-])c2c1.[Na+].[Na+] [Compound 167] the “Number of Molecules Bound” value was 0. In the case of NC1=NN(c2ccc(Oc3ccccc3)c(S(=O)(=O)O)c2)C(=O)C1 [Compound 168], the “Number of Molecules Bound” value is reported as 0. Nc1ccc(S(=O)(=O)O)cn1 [Compound 170] was tested, and the “Number of Molecules Bound” value was 6. Nc1ccncc1S(=O)(=O)O [Compound 171] was tested, and the “Number of Molecules Bound” value was 7. For Nc1nc2cc(S(=O)(=O)O)cc(N)c2o1 [Compound 172], the “Number of Molecules Bound” value was 0.
